How the values were obtained:
HepG2 [1] = test: Antitumor activity against Homo sapiens (human) HepG2 cells assessed as cell growth inhibition after 48 hr by MTT assay; format: functional, cell-based
A549 = test: Antitumor activity against Homo sapiens (human) A549 cells assessed as cell growth inhibition after 48 hr by MTT assay; format: functional, cell-based
HCT-116 = test: Antitumor activity against Homo sapiens (human) HCT116 cells assessed as cell growth inhibition after 48 hr by MTT assay; format: functional, cell-based
MCF7 [2] = test: Ratio of doxorubicin IC50 to compound IC50 for Homo sapiens (human) MCF7 cells; format: functional
MCF7 [3] = test: Antitumor activity against Homo sapiens (human) MCF7 cells assessed as cell growth inhibition after 48 hr by MTT assay; format: functional, cell-based
HepG2 [4] = test: Ratio of doxorubicin IC50 to compound IC50 for Homo sapiens (human) HepG2 cells; format: functional
[5] = Homo sapiens, HepG2, 48 h, read-out: IC50
[6] = Homo sapiens, A549, 48 h, read-out: IC50
[7] = Homo sapiens, HCT-116, 48 h, read-out: IC50
[8] = Homo sapiens, MCF7, 48 h, read-out: IC50

Row | SMILES | IC50 (HepG2 [1]; [5]) | IC50 (A549; [6]) | IC50 (HCT-116; [7]) | growth inhibition (GI) (HepG2 [1]) | growth inhibition (GI) (A549) | Ratio IC50 (MCF7 [2]) | growth inhibition (GI) (HCT-116) | growth inhibition (GI) (MCF7 [3]) | IC50 (MCF7 [3]; [8]) | Ratio IC50 (HepG2 [4]) | IC50 (HepG2 [1]; hepg2) | IC50 (A549; a549) | IC50 (HCT-116; hct-116) | IC50 (MCF7 [3]; mcf7)
1 | COc1cccc2c1C(=O)c1c(O)c3c(c(O)c1C2=O)C[C@@](O)(C(=O)CO)C[C@@H]3O[C@H]1C[C@H](N)[C@H](O)[C@H](C)O1 [DOXORUBICIN] | 7.36 µM | 0.84 µM | 6.86 µM |  |  |  |  |  |  |  |  |  |  | 
2 | C[C@@H]1CC[C@@]2(OC1)O[C@H]1C[C@H]3[C@@H]4CC[C@@H]5C[C@@H](O[C@@H]6O[C@H](CO)[C@H](O[C@@H]7O[C@H](CO)[C@@H](O)[C@H](O[C@@H]8O[C@H](CO)[C@@H](O)[C@H](O)[C@H]8O)[C@H]7O[C@@H]7O[C@H](CO)[C@H](O)[C@H](O)[C@H]7O[C@@H]7OC[C@@H](O)[C@H](O)[C@H]7O)[C@H](O)[C@H]6O)CC[C@]5(C)[C@H]4CC[C@]3(C)[C@H]1[C@@H]2C [Desmettianoside C] | 1.1 µM | 10.2 µM | 2.4 µM | Dose-dependent effect | Dose-dependent effect | 2 | Dose-dependent effect | Dose-dependent effect | 2.6 µM |  |  |  |  | 
3 | C[C@@H]1CC[C@@]2(OC1)O[C@H]1C[C@H]3[C@@H]4CC[C@@H]5C[C@@H](O[C@@H]6O[C@H](CO)[C@@H](O)[C@H](O)[C@H]6O[C@@H]6O[C@H](CO)[C@H](O)[C@H](O)[C@H]6O)CC[C@]5(C)[C@H]4CC[C@]3(C)[C@H]1[C@@H]2C | 3.5 µM | 16.5 µM | 4.4 µM | Dose-dependent effect | Dose-dependent effect |  | Dose-dependent effect | Dose-dependent effect | 4 µM | 2 |  |  |  | 
4 | CO[C@]1(CC[C@H](C)CO[C@@H]2O[C@H](CO)[C@@H](O)[C@H](O)[C@H]2O)O[C@H]2C[C@H]3[C@@H]4CC[C@@H]5C[C@@H](O[C@@H]6O[C@H](CO)[C@@H](O)[C@H](O)[C@H]6O[C@@H]6O[C@H](CO)[C@H](O)[C@H](O)[C@H]6O)CC[C@]5(C)[C@H]4CC[C@]3(C)[C@H]2[C@@H]1C |  |  |  |  |  |  |  |  |  |  | Not Active | Not Active | Not Active | Not Active
5 | C[C@@H](CC[C@@]1(O)O[C@H]2C[C@H]3[C@@H]4CC[C@@H]5C[C@@H](O[C@@H]6O[C@H](CO)[C@@H](O)[C@H](O)[C@H]6O[C@@H]6O[C@H](CO)[C@H](O)[C@H](O)[C@H]6O)CC[C@]5(C)[C@H]4CC[C@]3(C)[C@H]2[C@@H]1C)CO[C@@H]1O[C@H](CO)[C@@H](O)[C@H](O)[C@H]1O |  |  |  |  |  |  |  |  |  |  | Not Active | Not Active | Not Active | Not Active
